Reference: ChEMBL document CHEMBL5154746, “Antibacterial Activity of Metergoline Analogues: Revisiting the Ergot Alkaloid Scaffold for Antibiotic Discovery” (2022)
≈ marks a conversion by molar mass, not a printed value.

Assays:
Salmonella typhimurium [1] = assay: Antibacterial activity against wild type Salmonella typhimurium SL1344 assessed as reduction in bacterial growth by Muller hinton broth based microdilution assay; type: functional, Salmonella enterica subsp. enterica serovar Typhimurium; conditions: Salmonella enterica
Escherichia coli [2] = assay: Antibacterial activity against wild type Escherichia coli MG1655 harboring delta tolC mutant assessed as inhibition of bacterial growth by MOPS based broth microdilution assay; type: functional
Escherichia coli [3] = assay: Antibacterial activity against wild type Escherichia coli MG1655 assessed as inhibition of bacterial growth by MOPS based broth microdilution assay; type: functional
Salmonella typhimurium [4] = assay: Antibacterial activity against Salmonella typhimurium harboring delta tolC mutant assessed as bacterial growth inhibition by Muller hinton broth based microdilution assay; type: functional, Salmonella enterica subsp. enterica serovar Typhimurium; conditions: Salmonella enterica
Escherichia coli [5] = assay: Antibacterial activity against wild type Escherichia coli MG1655 assessed as inhibition of bacterial growth by Muller hinton broth based microdilution assay; type: functional
Salmonella typhimurium [6] = assay: Antibacterial activity against wild type Salmonella typhimurium SL1344 assessed as reduction in bacterial growth by ALM based microdilution assay; type: functional, Salmonella enterica subsp. enterica serovar Typhimurium; conditions: Salmonella enterica
Bacillus subtilis = assay: Antibacterial activity against Bacillus subtilis 168 assessed as inhibition of bacterial growth by Muller hinton broth based microdilution assay; type: functional
Staphylococcus aureus = assay: Antibacterial activity against Methicillin-resistant Staphylococcus aureus USA300 assessed as inhibition of bacterial growth by Muller hinton broth based microdilution assay; type: functional
Escherichia coli [7] = assay: Antibacterial activity against wild type Escherichia coli MG1655 harboring delta tolC mutant assessed as inhibition of bacterial growth by Muller hinton broth based microdilution assay; type: functional

## CN(C)CCCNC(=O)/C=C/c1ccc(C(F)(F)F)cc1
Salmonella typhimurium [1]
  MIC: > 200 µg/mL
Escherichia coli [2]
  MIC: 128 µg/mL (≈ 426 µM)
Escherichia coli [3]
  MIC: > 200 µg/mL
Salmonella typhimurium [4]
  MIC: > 200 µg/mL
Escherichia coli [5]
  MIC: > 200 µg/mL
Salmonella typhimurium [6]
  MIC: > 200 µg/mL
Bacillus subtilis
  MIC: > 200 µg/mL
Staphylococcus aureus
  MIC: > 200 µg/mL

## CN1C=C2C[C@@H]3[C@H](C[C@@H](CNC(=O)C4CC4c4ccccc4)CN3C)C3C=CC=C1C23 (some centres not stated)
Salmonella typhimurium [1]
  MIC: > 200 µg/mL
Escherichia coli [2]
  MIC: 10.2 µg/mL (≈ 24.6 µM)
Escherichia coli [3]
  MIC: > 200 µg/mL
Salmonella typhimurium [4]
  MIC: 64 µg/mL (≈ 154 µM)
Escherichia coli [7]
  MIC: 64 µg/mL (≈ 154 µM)
Escherichia coli [5]
  MIC: > 200 µg/mL
Salmonella typhimurium [6]
  MIC: 200 µg/mL (≈ 481 µM)
Bacillus subtilis
  MIC: 64 µg/mL (≈ 154 µM)
Staphylococcus aureus
  MIC: 64 µg/mL (≈ 154 µM)
